Patent publication US20240083857A1, “2-Methyl-Quinazolines” (Bayer Pharma Aktiengesellschaft, priority 2017, published 2024)

Assays:
[1] = molecular target: human SOS1 (nucleotide exchange of K-Ras^G12C) (Homo sapiens, UniProt Q07889); test: Biochemical assay 2: K-Ras^G12C activation assay by hSOS1 at high GTP concentration (HTRF); conditions: high GTP; read-out: Assay 2 (KRAS-Activation by SOS high GTP) activity expressed as IC50
[2] = molecular target: Epidermal Growth Factor Receptor (EGFR) (Homo sapiens (Human), UniProt P00533); test: EGFR kinase assay (TR-FRET); type: biochemical; conditions: values given in μM; read-out: EGFR kinase inhibition IC50
Chain of Epidermal Growth Factor Receptor (EGFR) (P00533 25-1210): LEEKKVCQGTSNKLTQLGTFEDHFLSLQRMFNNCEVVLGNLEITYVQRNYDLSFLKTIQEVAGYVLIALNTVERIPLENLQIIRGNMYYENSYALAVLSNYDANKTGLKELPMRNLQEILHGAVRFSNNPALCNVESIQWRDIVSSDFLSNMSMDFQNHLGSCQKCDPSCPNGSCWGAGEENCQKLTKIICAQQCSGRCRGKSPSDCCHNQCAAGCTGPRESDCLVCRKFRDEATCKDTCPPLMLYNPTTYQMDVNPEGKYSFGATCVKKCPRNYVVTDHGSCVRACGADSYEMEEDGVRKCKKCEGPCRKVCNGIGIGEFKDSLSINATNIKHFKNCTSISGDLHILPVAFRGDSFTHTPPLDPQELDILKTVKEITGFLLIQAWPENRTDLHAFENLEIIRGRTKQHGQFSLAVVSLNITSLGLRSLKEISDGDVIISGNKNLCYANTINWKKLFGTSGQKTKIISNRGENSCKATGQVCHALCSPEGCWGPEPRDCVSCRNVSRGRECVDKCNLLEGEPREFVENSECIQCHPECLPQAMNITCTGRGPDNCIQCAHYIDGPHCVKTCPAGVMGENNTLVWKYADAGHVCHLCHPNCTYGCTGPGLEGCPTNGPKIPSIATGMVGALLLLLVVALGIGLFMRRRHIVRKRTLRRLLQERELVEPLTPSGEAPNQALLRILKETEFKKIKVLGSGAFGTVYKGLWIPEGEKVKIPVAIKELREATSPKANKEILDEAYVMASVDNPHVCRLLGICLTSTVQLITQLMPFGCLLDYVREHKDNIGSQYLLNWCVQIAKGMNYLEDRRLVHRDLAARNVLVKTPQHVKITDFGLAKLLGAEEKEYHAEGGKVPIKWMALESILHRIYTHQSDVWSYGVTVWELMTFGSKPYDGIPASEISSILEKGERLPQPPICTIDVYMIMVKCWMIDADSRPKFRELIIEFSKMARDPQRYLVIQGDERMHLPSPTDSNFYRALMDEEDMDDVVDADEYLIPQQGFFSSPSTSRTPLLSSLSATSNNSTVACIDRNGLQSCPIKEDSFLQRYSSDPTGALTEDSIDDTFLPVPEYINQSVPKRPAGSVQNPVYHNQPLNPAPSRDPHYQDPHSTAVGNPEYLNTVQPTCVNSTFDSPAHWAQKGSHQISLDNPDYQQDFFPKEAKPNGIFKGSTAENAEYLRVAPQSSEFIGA
Summary of the method: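 EGFR purified from A431 cells was preincubated with compound 15 min at 22° C in pH 7.0 Hepes buffer with MgCl2, MnCl2 and vanadate before reaction with a biotinylated peptide. After EDTA stop, phosphopeptide was detected by TR-FRET (anti-phosphotyrosine Tb-cryptate, streptavidin-XL665) as the 665/620 nm emission ratio.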

SMILES	IC50 [1]	IC50 [2]
COc1cc2nc(C)nc(NC(C)c3ccc(-c4cnc5n4CCC5)s3)c2cc1OC (single isomer, unassigned; enantiomer 1) [Example 328, N-{1-[5-(6,7-dihydro-5H-pyrrolo[1,2-a]imidazol-3-yl)thiophen-2-yl]ethyl}-6,7-dimethoxy-2-methylquinazolin-4-amine, Enantiomer 1]	526 nM	> 20 µM
COc1cc2nc(C)nc(NC(C)c3ccc(-c4cnc5n4CCC5)s3)c2cc1OC (single isomer, unassigned; enantiomer 2) [Example 329, N-{1-[5-(6,7-dihydro-5H-pyrrolo[1,2-a]imidazol-3-yl)thiophen-2-yl]ethyl}-6,7-dimethoxy-2-methylquinazolin-4-amine, Enantiomer 2]	6470 nM	> 20 µM
COc1cc2nc(C)nc(NC(C)c3ccc(-c4ccc(F)cc4CNC(=O)[C@H]4CCCN4)s3)c2cc1OC (stereo in doubt) [Example 316, N-[2-(5-{1-[(6,7-dimethoxy-2-methylquinazolin-4-yl)amino]ethyl}thiophen-2-yl)-5-fluorobenzyl]-prolinamide]	284 nM	> 20 µM
COc1cc2nc(C)nc(NC(C)c3cccc4scnc34)c2cc1OC (stereo not drawn) [Example 14, N-[1-(1,3-benzothiazol-4-yl)ethyl]-6,7-dimethoxy-2-methylquinazolin-4-amine]	608 nM	> 20 µM
COc1cc2nc(C)nc(NC(C)c3cccc4ccsc34)c2cc1OC (stereo not drawn) [Example 15, N-[1-(1-benzothiophen-7-yl)ethyl]-6,7-dimethoxy-2-methylquinazolin-4-amine]	91.1 nM	> 20 µM
COc1cc2nc(C)nc(NC(C)c3cc(C)cc4[nH]ncc34)c2cc1OC (stereo not drawn) [Example 16, 6,7-dimethoxy-2-methyl-N-[1-(6-methyl-1H-indazol-4-yl)ethyl]quinazolin-4-amine]	3020 nM	> 20 µM
COc1cc2nc(C)nc(NC(C)c3cccc4c3cnn4C)c2cc1OC (stereo not drawn) [Example 17, 6,7-dimethoxy-2-methyl-N-[1-(1-methyl-1H-indazol-4-yl)ethyl]quinazolin-4-amine]	297 nM	> 20 µM
COc1cc2nc(C)nc(NC(C)c3c(F)ccc4[nH]ncc34)c2cc1OC (stereo not drawn) [Example 18, N-[1-(5-fluoro-1H-indazol-4-yl)ethyl]-6,7-dimethoxy-2-methylquinazolin-4-amine]	7680 nM	> 20 µM
COc1cc2nc(C)nc(NC(C)c3ccc4c(c3)OCCO4)c2cc1OC (stereo not drawn) [Example 19, N-[1-(2,3-dihydro-1,4-benzodioxin-6-yl)ethyl]-6,7-dimethoxy-2-methylquinazolin-4-amine]	6550 nM	> 20 µM
COc1cc2nc(C)nc(NC(C)c3cc4ccccc4o3)c2cc1OC (stereo not drawn) [Example 20, N-[1-(1-benzofuran-2-yl)ethyl]-6,7-dimethoxy-2-methylquinazolin-4-amine]	8200 nM	> 20 µM
COc1cc2nc(C)nc(NC(C)c3cccc(OC)c3OC)c2cc1OC (stereo not drawn) [Example 21, N-[1-(2,3-dimethoxyphenyl)ethyl]-6,7-dimethoxy-2-methylquinazolin-4-amine]	3230 nM	> 20 µM
COc1cc2nc(C)nc(N[C@H](C)c3cccc(-c4ccccc4CN)c3)c2cc1OC [Example 258, N-{(1R)-1-[2′-(aminomethyl)biphenyl-3-yl]ethyl}-6,7-dimethoxy-2-methylquinazolin-4-amine]	190 nM	> 20 µM
COc1cc2nc(C)nc(NC(C)c3csc(-c4ccccc4CN)c3)c2cc1OC (stereo not drawn) [Example 259, N-[1-{5-[2-(aminomethyl)phenyl]thiophen-3-yl}ethyl]-6,7-dimethoxy-2-methylquinazolin-4-amine]	435 nM	> 20 µM
COc1cc2nc(C)nc(N[C@H](C)c3cccc(CN)c3)c2cc1OC [Example 260, N-{(1R)-1-[3-(aminomethyl)phenyl]ethyl}-6,7-dimethoxy-2-methylquinazolin-4-amine]	2040 nM	> 20 µM
COc1cc2nc(C)nc(N[C@H](C)c3cccc(-c4cnc5n4CCC5)c3)c2cc1OC [Example 261, N-{(1R)-1-[3-(6,7-dihydro-5H-pyrrolo[1,2-a]imidazol-3-yl)phenyl]ethyl}-6,7-dimethoxy-2-methylquinazolin-4-amine]	873 nM	> 20 µM
COc1cc2nc(C)nc(NC(C)c3ccc(-c4ccccc4CN(C)C)s3)c2cc1OC (stereo not drawn) [Example 262, N-[1-(5-{2-[(dimethylamino)methyl]phenyl}thiophen-2-yl)ethyl]-6,7-dimethoxy-2-methylquinazolin-4-amine]	44 nM	> 20 µM
CNCc1ccccc1-c1cc(C(C)Nc2nc(C)nc3cc(OC)c(OC)cc23)cs1 (stereo not drawn) [Example 263, 6,7-dimethoxy-2-methyl-N-[1-(5-{2-[(methylamino)methyl]phenyl}thiophen-3-yl)ethyl]quinazolin-4-amine]	232 nM	> 20 µM

SMILES	IC50 [1]	IC50 [2]
COc1cc2nc(C)nc(NC(C)c3cc(Br)cs3)c2cc1OC (stereo not drawn) [Example 264, N-[1-(4-bromothiophen-2-yl)ethyl]-6,7-dimethoxy-2-methylquinazolin-4-amine]	1670 nM	> 20 µM
COc1cc2nc(C)nc(NC(C)c3ccc(-c4cccc(CN)c4)s3)c2cc1OC (stereo not drawn) [Example 265, N-[1-{5-[3-(aminomethyl)phenyl]thiophen-2-yl}ethyl]-6,7-dimethoxy-2-methylquinazolin-4-amine]	1470 nM	> 20 µM
COc1cc2nc(C)nc(NC(C)c3ccc(-c4ccc(CN)cc4)s3)c2cc1OC (stereo not drawn) [Example 266, N-[1-{5-[4-(aminomethyl)phenyl]thiophen-2-yl}ethyl]-6,7-dimethoxy-2-methylquinazolin-4-amine]	1700 nM	> 20 µM
COc1cc2nc(C)nc(NC(C)c3cc(-c4ccn(CCN5CCCC5)n4)cs3)c2cc1OC (stereo not drawn) [Example 267, 6,7-dimethoxy-2-methyl-N-[1-(4-{1-[2-(pyrrolidin-1-yl)ethyl]-1H-pyrazol-3-yl}thiophen-2-yl)ethyl]quinazolin-4-amine]	1520 nM	> 20 µM
CNCc1ccccc1-c1cccc([C@@H](C)Nc2nc(C)nc3cc(OC)c(OC)cc23)c1 [Example 268, 6,7-dimethoxy-2-methyl-N-[(1R)-1-{2′-[(methylamino)methyl]biphenyl-3-yl}ethyl]quinazolin-4-amine]	151 nM	> 20 µM
COc1cc2nc(C)nc(NC(C)c3cc(-c4ccc(F)cc4CN)cs3)c2cc1OC (stereo not drawn) [Example 269, N-[1-{4-[2-(aminomethyl)-4-fluorophenyl]thiophen-2-yl}ethyl]-6,7-dimethoxy-2-methylquinazolin-4-amine]	115 nM	> 20 µM
COc1cc2nc(C)nc(NC(C)c3cc(-c4ccccc4CN)cs3)c2cc1OC (stereo not drawn) [Example 270, N-[1-{4-[2-(aminomethyl)phenyl]thiophen-2-yl}ethyl]-6,7-dimethoxy-2-methylquinazolin-4-amine]	82.2 nM	> 20 µM
COc1cc2nc(C)nc(NC(C)c3cc(-c4cnc5n4CCC5)cs3)c2cc1OC (stereo not drawn) [Example 272, N-{1-[4-(6,7-dihydro-5H-pyrrolo[1,2-a]imidazol-3-yl)thiophen-2-yl]ethyl}-6,7-dimethoxy-2-methylquinazolin-4-amine]	1500 nM	> 20 µM
COc1cc2nc(C)nc(NC(C)c3cc(-c4ccn(CCO)n4)cs3)c2cc1OC (stereo not drawn) [Example 273, 2-[3-(5-{1-[(6,7-dimethoxy-2-methylquinazolin-4-yl)amino]ethyl}thiophen-3-yl)-1H-pyrazol-1-yl]ethanol]	2360 nM	> 20 µM
COc1cc2nc(C)nc(N[C@H](C)c3cccc(-c4ccc(F)cc4CN)c3)c2cc1OC [Example 274, N-{(1R)-1-[2′-(aminomethyl)-4′-fluorobiphenyl-3-yl]ethyl}-6,7-dimethoxy-2-methylquinazolin-4-amine]	141 nM	> 20 µM
COc1cc2nc(C)nc(NC(C)c3ccc(-c4ccc(CN)o4)s3)c2cc1OC (stereo not drawn) [Example 275, N-[1-{5-[5-(aminomethyl)furan-2-yl]thiophen-2-yl}ethyl]-6,7-dimethoxy-2-methylquinazolin-4-amine]	2970 nM	> 20 µM
COc1cc2nc(C)nc(NC(C)c3ccc(-c4ccc(CN)s4)s3)c2cc1OC (stereo not drawn) [Example 276, N-{1-[5′-(aminomethyl)-2,2′-bithiophen-5-yl]ethyl}-6,7-dimethoxy-2-methylquinazolin-4-amine]	1660 nM	> 20 µM
COc1cc2nc(C)nc(NC(C)c3ccc(-c4ccccc4CNCC(=O)c4c[nH]c5ccccc45)s3)c2cc1OC (stereo not drawn) [Example 277, 2-{[2-(5-{1-[(6,7-dimethoxy-2-methylquinazolin-4-yl)amino]ethyl}thiophen-2-yl)benzyl]amino}-1-(1H-indol-3-yl)ethanone]	237 nM	> 20 µM
COc1cc2nc(C)nc(NC(C)c3ccc(-c4cccc5sc(C(N)=O)c(N)c45)s3)c2cc1OC (stereo not drawn) [Example 278, 3-amino-4-(5-{1-[(6,7-dimethoxy-2-methylquinazolin-4-yl)amino]ethyl}thiophen-2-yl)-1-benzothiophene-2-carboxamide]	3710 nM	> 20 µM
COC(=O)CNCc1ccccc1-c1ccc(C(C)Nc2nc(C)nc3cc(OC)c(OC)cc23)s1 (stereo not drawn) [Example 281, methyl N-[2-(5-{1-[(6,7-dimethoxy-2-methylquinazolin-4-yl)amino]ethyl}thiophen-2-yl)benzyl]glycinate]	447 nM	> 20 µM
COc1cc2nc(C)nc(NC(C)c3ccc(-c4ccccc4CNCC(=O)N4CCOCC4)s3)c2cc1OC (stereo not drawn) [Example 285, 2-{[2-(5-{1-[(6,7-dimethoxy-2-methylquinazolin-4-yl)amino]ethyl}thiophen-2-yl)benzyl]amino}-1-(morpholin-4-yl)ethanone]	158 nM	> 20 µM
